From patent publication US10336761B2, “TGFβ receptor antagonist” (BRISTOL-MYERS SQUIBB COMPANY, priority 2015, dated 2019)

biological target: HIS-TGFβR1 T204D (Homo sapiens (Human), UniProt P36897, T204D); assay: HTRF probe-displacement assay, HIS-TGFβR1 T204D; assay type: binding; conditions: 1 hour at room temperature
Sequence (P36897 34-503 T204D): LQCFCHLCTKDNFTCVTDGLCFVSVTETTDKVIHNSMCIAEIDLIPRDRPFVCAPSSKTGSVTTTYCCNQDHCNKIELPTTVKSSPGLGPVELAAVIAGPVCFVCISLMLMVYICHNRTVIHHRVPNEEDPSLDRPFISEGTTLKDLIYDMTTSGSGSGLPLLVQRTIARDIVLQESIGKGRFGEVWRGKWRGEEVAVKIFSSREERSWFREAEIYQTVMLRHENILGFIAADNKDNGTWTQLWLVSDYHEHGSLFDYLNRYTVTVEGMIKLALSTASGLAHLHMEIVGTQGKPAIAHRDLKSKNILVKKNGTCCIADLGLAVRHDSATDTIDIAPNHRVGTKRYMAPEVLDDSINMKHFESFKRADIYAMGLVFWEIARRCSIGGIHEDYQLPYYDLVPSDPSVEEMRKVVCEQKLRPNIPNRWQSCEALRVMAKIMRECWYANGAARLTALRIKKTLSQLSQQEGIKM

IC50	Structure (SMILES)
8.6 nM	O=C(NCCCN1CCS(=O)(=O)CC1)c1cnccc1Nc1nc(-c2cccc(C(F)F)n2)nn2cccc12 [Example 168, 4-({2-[6-(difluoromethyl)pyridin-2-yl]pyrrolo[2,1-f][1,2,4]triazin-4-yl}amino)-N-[3-(1,1-dioxo-1,4-thiomorpholin-4-yl)propyl]pyridine-3-carboxamide]
1.2 nM	O=C(CCN1CCC(O)CC1)Nc1cc(Nc2nc(-c3cccc(C(F)(F)F)n3)nn3cccc23)ccn1 [Example 340, 3-(4-hydroxypiperidin-1-yl)-N-[4-({2-[6-(trifluoromethyl)pyridin-2-yl]pyrrolo[2,1-f][1,2,4]triazin-4-yl}amino)pyridin-2-yl]propanamide]
1.4 nM	Cc1nc(-c2nc(Nc3ccnc(NC(=O)C4CC4)c3)c3cccn3n2)ccc1F [Example 345, N-(4-{[2-(5-fluoro-6-methylpyridin-2-yl)pyrrolo[2,1-f][1,2,4]triazin-4-yl]amino}pyridin-2-yl)cyclopropanecarboxamide]
2 nM	CC(=O)Nc1cc(Nc2nc(-c3cccc(C(F)(F)F)n3)nn3ccc(CNCC(C)(C)O)c23)ccn1 [Example 254, N-{4-[(5-{[(2-hydroxy-2-methylpropyl)amino]methyl}-2-[6-(trifluoromethyl)pyridin-2-yl]pyrrolo[2,1-f][1,2,4]triazin-4-yl)amino]pyridin-2-yl}acetamide]
0.37 nM	O=C(Nc1cc(Nc2nc(-c3cccc(C(F)(F)F)n3)nn3cccc23)ccn1)C1CC1 [Example 335, N-[4-({2-[6-(trifluoromethyl)pyridin-2-yl]pyrrolo[2,1-f][1,2,4]triazin-4-yl}amino)pyridin-2-yl]cyclopropanecarboxamide]
890 nM	NC(=O)c1cc(Nc2nc(-c3cccc(C(F)(F)F)n3)nn3cccc23)ccn1 [Example 315, 4-({2-[6-(trifluoromethyl)pyridin-2-yl]pyrrolo[2,1-f][1,2,4]triazin-4-yl}amino)pyridine-2-carboxamide]
660 nM	Cc1cc(Nc2nc(-c3cccc(C(F)(F)F)n3)nn3cccc23)ccn1 [Example 257, 2-methyl-N-{2-[6-(trifluoromethyl)pyridin-2-yl]pyrrolo[2,1-f][1,2,4]triazin-4-yl}pyridin-4-amine]
0.87 nM	COC(=O)Nc1cc(Nc2nc(-c3cccc(C(F)(F)F)n3)nn3cccc23)ccn1 [Example 312, Methyl N-[4-({2-[6-(trifluoromethyl)pyridin-2-yl]pyrrolo[2,1-f][1,2,4]triazin-4-yl}amino)pyridin-2-yl]carbamate]
76 nM	Cc1cccc(-c2nc(Nc3ccncc3)c3cc(C(=O)NCCCN4CCCC4)cn3n2)n1 [Example 50, 2-(6-methylpyridin-2-yl)-4-[(pyridin-4-yl)amino]-N-[3-(pyrrolidin-1-yl)propyl]pyrrolo[2,1-f][1,2,4]triazine-6-carboxamide]
5 nM	Cc1nc(-c2nc(Nc3ccncc3C(=O)NCCN3CCCCC3)c3cccn3n2)ccc1F [Example 141, 4-{[2-(5-fluoro-6-methylpyridin-2-yl)pyrrolo[2,1-f][1,2,4]triazin-4-yl]amino}-N-[2-(piperidin-1-yl)ethyl]pyridine-3-carboxamide]
67 nM	Cc1cccc(-c2nc(Nc3ccncc3OCCCN3CCOCC3)c3cccn3n2)n1 [Example 222, N-[2-(6-methylpyridin-2-yl)pyrrolo[2,1-f][1,2,4]triazin-4-yl]-3-[3-(morpholin-4-yl)propoxy]pyridin-4-amine]
190 nM	COc1cccc(-c2nc(Nc3ccnc(NCCN4CCOCC4)c3)c3cccn3n2)n1 [Example 139, 4-N-[2-(6-methoxypyridin-2-yl)pyrrolo[2,1-f][1,2,4]triazin-4-yl]-2-N-[2-(morpholin-4-yl)ethyl]pyridine-2,4-diamine]
1.9 nM	FC(F)(F)c1cccc(-c2nc(Nc3ccncc3Cl)c3cccn3n2)n1 [Example 86, 3-chloro-N-{2-[6-(trifluoromethyl)pyridin-2-yl]pyrrolo[2,1-f][1,2,4]triazin-4-yl}pyridin-4-amine]
2.9 nM	COc1cccc(-c2nc(Nc3ccnc(NC(C)=O)c3)c3cccn3n2)n1 [Example 97, N-(4-{[2-(6-methoxypyridin-2-yl)pyrrolo[2,1-f][1,2,4]triazin-4-yl]amino}pyridin-2-yl)acetamide]

More lines, now with the values behind:

Structure (SMILES)	IC50
Cc1cccc(-c2nc(Nc3ccncc3C(=O)NC[C@H](O)CO)c3cccn3n2)n1 [Example 158, N-[(2S)-2,3-dihydroxypropyl]-4-{[2-(6-methylpyridin-2-yl)pyrrolo[2,1-f][1,2,4]triazin-4-yl]amino}pyridine-3-carboxamide]	7.9 nM
COc1cccc(-c2nc(Nc3ccncc3N)c3cccn3n2)n1 [Example 95, 4-N-[2-(6-methoxypyridin-2-yl)pyrrolo[2,1-f][1,2,4]triazin-4-yl]pyridine-3,4-diamine]	20 nM
CC(O)CCNCc1ccn2nc(-c3ccccn3)nc(Nc3ccncc3F)c12 (stereo not shown) [Example 274, 4-[({4-[(3-fluoropyridin-4-yl)amino]-2-(pyridin-2-yl)pyrrolo[2,1-f][1,2,4]triazin-5-yl}methyl)amino]butan-2-ol]	0.52 nM
Cc1cccc(-c2nc(Nc3ccncc3)c3cc(C(=O)N(C)C)cn3n2)n1 [Example 218, N,N-dimethyl-2-(6-methylpyridin-2-yl)-4-[(pyridin-4-yl)amino]pyrrolo[2,1-f][1,2,4]triazine-6-carboxamide]	130 nM
Cc1cccc(-c2nc(Nc3ccncc3F)c3ccc(C(=O)O)n3n2)n1 [Example 52, 4-[(3-fluoropyridin-4-yl)amino]-2-(6-methylpyridin-2-yl)pyrrolo[2,1-f][1,2,4]triazine-7-carboxylic acid]	35 nM
Fc1cnccc1Nc1nc(-c2ccccn2)nn2ccc(CNC3CCNCC3)c12 [Example 307, 3-fluoro-N-(5-{[(piperidin-4-yl)amino]methyl}-2-(pyridin-2-yl)pyrrolo[2,1-f][1,2,4]triazin-4-yl)pyridin-4-amine]	9.1 nM
Fc1cnccc1Nc1nc(-c2cscn2)nn2cccc12 [Example 262, 3-fluoro-N-[2-(1,3-thiazol-4-yl)pyrrolo[2,1-f][1,2,4]triazin-4-yl]pyridin-4-amine]	8.2 nM
COc1nccc(-c2nc(Nc3ccncc3F)c3cccn3n2)n1 [Example 101, 3-fluoro-N-[2-(2-methoxypyrimidin-4-yl)pyrrolo[2,1-f][1,2,4]triazin-4-yl]pyridin-4-amine]	530 nM
COc1cccc(-c2nc(Nc3ccncc3F)c3c(C(O)CNCCN4CCS(=O)(=O)CC4)ccn3n2)n1 (stereo not shown) [Example 131, 4-{2-[(2-{4-[(3-fluoropyridin-4-yl)amino]-2-(6-methoxypyridin-2-yl)pyrrolo[2,1-f][1,2,4]triazin-5-yl}-2-hydroxyethyl)amino]ethyl}-1,4-thiomorpholine-1,1-dione]	56 nM
O=C(NCCCN1CCCC1)c1cnccc1Nc1nc(-c2ccccn2)nn2cccc12 [Example 150]	16 nM
Fc1cnccc1Nc1nc(-c2cccc(C(F)F)n2)nn2cccc12 [Example 78, N-{2-[6-(difluoromethyl)pyridin-2-yl]pyrrolo[2,1-f][1,2,4]triazin-4-yl}-3-fluoropyridin-4-amine]	0.92 nM
COc1cccc(-c2nc(Nc3ccncc3F)c3c(C(O)CN4CCC(F)(F)CC4)ccn3n2)n1 (stereo not shown) [Example 129, 2-(4,4-difluoropiperidin-1-yl)-1-{4-[(3-fluoropyridin-4-yl)amino]-2-(6-methoxypyridin-2-yl)pyrrolo[2,1-f][1,2,4]triazin-5-yl}ethan-1-ol]	38 nM
CS(=O)(=O)Nc1cccc(-c2nc(Nc3ccncc3Cl)c3cccn3n2)n1 [Example 90, N-(6-{4-[(3-chloropyridin-4-yl)amino]pyrrolo[2,1-f][1,2,4]triazin-2-yl}pyridin-2-yl)methanesulfonamide]	8.8 nM

biological target: GST tagged wild type TGFβR1 (Homo sapiens (Human), UniProt P36897); assay: HTRF probe-displacement assay, GST tagged wild type TGFβR1; assay type: binding; conditions: GST tagged wild type proteins were used instead of HIS-tagged proteins
Description: Compounds were dissolved at 10 mM in dimethylsulfoxide (DMSO) and evaluated at eleven concentrations. IC50 values were derived by non-linear regression analysis.

GST tagged wild type TGFβR1, sequence (P36897 34-503): as the sequence (P36897 34-503 T204D) above, with D171T counted along it

IC50	Structure (SMILES)
2600 nM	O=C(NCCN1CCS(=O)(=O)CC1)c1cnccc1Nc1nc(-c2ccccn2)nn2cccc12 [Example 147, N-[2-(1,1-dioxo-1,4-thiomorpholin-4-yl)ethyl]-4-{[2-(pyridin-2-yl)pyrrolo[2,1-f][1,2,4]triazin-4-yl]amino}pyridine-3-carboxamide]
6 nM	CN1CCN(Cc2ccn3nc(-c4cccc(C(F)F)n4)nc(Nc4ccncc4F)c23)CC1 [Example 122, N-{2-[6-(difluoromethyl)pyridin-2-yl]-5-[(4-methylpiperazin-1-yl)methyl]pyrrolo[2,1-f][1,2,4]triazin-4-yl}-3-fluoropyridin-4-amine]
1700 nM	Cc1ccnc(-c2nc(Nc3ccncc3F)c3cccn3n2)c1 [Example 62, 3-fluoro-N-[2-(4-methylpyridin-2-yl)pyrrolo[2,1-f][1,2,4]triazin-4-yl]pyridin-4-amine]
6.1 nM	Cc1nc(-c2nc(Nc3ccncc3F)c3cccn3n2)ccc1F [Example 74, 3-fluoro-N-[2-(5-fluoro-6-methylpyridin-2-yl)pyrrolo[2,1-f][1,2,4]triazin-4-yl]pyridin-4-amine]
